Reference: article PMC12195707, “Evaluation of Antitumoral Activity in a 3D Cell Model of a Src Inhibitor Prodrug for Glioblastoma Treatment” (Pharmaceutics, 2025)
“And” between values parts separate entries of the source, which are not always exact repeats. Equal values may be shown once.

Key:
[1] = Stability/release in human plasma; settings: for Stability (% unmodified compound): 37 °C; for half-life: human, pH 7.4
[2] = PAMPA assay, gastrointestinal (GI) membrane; format: in vitro ADME; settings: four hours; for Papp at 4 h: pH 7.4, room temperature, read-out: Apparent permeability Papp; for Membrane retention MR: room temperature
Procedure: After being first dissolved in DMSO, the compounds were diluted 1:1 v/v using phosphate buffer (PBS 10 mM, pH 7.4). […] The gastrointestinal (GI) and blood–brain barrier (BBB) phospholipidic bilayers were mimicked by covering each well of the filter plate with either a 10%w/v CHCl3/dodecane brain polar lipid solution or a 1%w/v L-α-phosphatidylcholine solution (PC) in dodecane. After placing a DMSO/PBS 1:1v/v combination solution in the acceptor plate, the sandwich was gently shaken and incubated at room temperature for four hours. Samples were collected from the upper and bottom plates at the end time point, and the LC-UV/MS method was used for analysis. As previously reported, the apparent permeability (Papp cm/s × 10^−6) was quantified.

Src = assay: Western blot of Src activation (pSrc/Src) in bioprinted U251 cells; format: cell-based, human; settings: bioprinted U251, 24 h, FBS-free DMEM; for Active form of Src, pSrc (Tyr416), vs. control: 1 or 10 µM, Western blot
Procedure: A solution of 2% alginate and 8% gelatin (bio-ink) made up the hydrogel utilized for bioprinting. After 15 min of UV light exposure, the powders were dissolved in sterile DPBS in a magnetic stirrer set at 50 °C with laminar flow. After being made, bioink was put in sterile syringes and kept at 4 °C until it was needed. Bioink had been equilibrated at 37 °C prior to the bioprinting process. After that, 2.7 mL of bioink was added to 20 × 10^6 cells that had been resuspended in 300 µL of growth media. Lastly, a disposable cartridge containing a cell/hydrogel suspension was equilibrated in a temperature-controlled printhead for 30 min at 29 °C. The BIO-X bioprinter (Cellink, Gothenburg, Sweden) was used to print in a 12-well plate at a speed of 5 mm/s and a dispensing pressure of 50 kPa, while the temperature was adjusted to 18 °C. Before adding culture media, three-dimensional constructs were crosslinked using CaCl2 for ten minutes and BaCl2 for three minutes. After 8 days, 3D structures, after evaluating cell viability, were treated for 72 h with SI306 and SI306-PD2 at selected concentrations and in different conditions: in complete DMEM high-glucose growth medium and DMEM-high glucose growth medium without FBS (w/o). Fiji ImageJ software (version 2.16.0/1.54p, https://imagej.net/software/fiji/downloads, accessed on 20 May 2025) was used to perform measurements of 3D models’ diameters on images acquired using phase contrast microscopy. A hemocytometer was used to set a scale for normalized measures and to convert real optic distance in pixels. At least five different optical fields were acquired, and the diameter was calculated for at least 100 different cell aggregates in each experimental point.
Cells were subjected to total protein extraction using a ready-to-use cell lysis buffer (Euroclone, Milan, Italy), supplemented by a Protease/Phosphatase Inhibitor Cocktail (Euroclone), diluted 1:100. Cell lysis was further facilitated by three cycles of sonication in an ultrasonic bath (JSP, Los Angeles, CA, USA). […]

[3] = Stability/release in fetal bovine serum (FBS); settings: for Stability (% unmodified compound): FBS, 37 °C; for half-life: bovine, fetal bovine serum (absolute FBS), pH 7.4

| Compound | Stability (% unmodified compound) ([1]; time 0 h) [%] | Stability (% unmodified compound) ([1]; time 0.083 h) [%] | Stability (% unmodified compound) ([1]; time 0.25 h) [%] | Stability (% unmodified compound) ([1]; time 0.5 h) [%] | Stability (% unmodified compound) ([1]; time 2 h) [%] | Stability (% unmodified compound) ([1]; time 4 h) [%] | Stability (% unmodified compound) ([1]; time 6 h) [%] | half-life [1] [h] | Papp at 4 h [2] [×10⁻⁶ cm/s] | Membrane retention MR [2] [%] | Active form of Src, pSrc (Tyr416), vs. control (Src) | Stability (% unmodified compound) ([3]; time 0 h) [%] | Stability (% unmodified compound) ([3]; time 0.083 h) [%] | Stability (% unmodified compound) ([3]; time 0.25 h) [%] | Stability (% unmodified compound) ([3]; time 0.5 h) [%] | Stability (% unmodified compound) ([3]; time 2 h) [%] | Stability (% unmodified compound) ([3]; time 4 h) [%] | Stability (% unmodified compound) ([3]; time 6 h) [%] | half-life [3] [h] | further results |
| --- | --- | --- | --- | --- | --- | --- | --- | --- | --- | --- | --- | --- | --- | --- | --- | --- | --- | --- | --- | --- |
| O=C(OCCOCCO)N(c1cccc(Br)c1)c1nc(SCCN2CCOCC2)nc2c1cnn2CC(Cl)c1ccccc1 (stereo not shown) [SI306-PD2, 2-(2-Hydroxyethoxy)ethyl (3-Bromophenyl)(1-(2-chloro-2-phenylethyl)-6-((2-morpholinoethyl)thio)-1H-pyrazolo[3,4-d]pyrimidin-4-yl)carbamate] | 101.03 ± 1.58 | 90.12 ± 2.45 | 89.41 ± 2.37 | 89.57 ± 1.82 | 88.55 ± 1.18 | 71.86 ± 1.03 | 70.80 ± 3.25 | 10.9 | 18.4 ± 2.32 | 5.26 ± 2.70 | evident reduction in the active form of Src, starting from 1 µM | 100.06 ± 1.13 | 93.64 ± 2.06 | 92.56 ± 3.74 | 89.39 ± 2.87 | 79.26 ± 0.34 | 64.90 ± 1.21 | 56.13 ± 2.72 | 10.7 | pSrc/Src ratio normalized to control, prodrug vs. SI306 (Src; 10 µM, densitometric analysis): higher ability of the prodrug to inhibit the generation of phosphorylated Src than the SI306 compound |
| ClC(Cn1ncc2c(Nc3cccc(Br)c3)nc(SCCN3CCOCC3)nc21)c1ccccc1 (stereo not shown) [SI306, N-(3-bromophenyl)-1-(2-chloro-2-phenylethyl)-6-((2-morpholinoethyl)thio)-1H-pyrazolo[3,4-d]pyrimidin-4-amine] | 100.50 ± 2.32 | 96.64 ± 2.74 | 97.99 ± 2.48 | 98.95 ± 1.18 | 99.92 ± 0.61 | 95.72 ± 0.76 | 95.54 ± 1.74 | > 100 | 5.93 ± 0.38 | 60.09 ± 3.38 | evident reduction in the active form of Src, starting from 1 µM | 100.24 ± 2.48 | 99.67 ± 0.21 | 98.42 ± 1.19 | 98.49 ± 2.18 | 93.95 ± 2.42 | 90.92 ± 2.68 | 90.51 ± 3.24 | > 100 | Stability (% unmodified compound) ([1]; time 1 h): 99.48 ± 1.70%; Stability (% unmodified compound) ([1]; time 24 h): 93.12% and 93.12 ± 1.70 %; Stability (% unmodified compound) ([3]; time 1 h): 97.91 ± 1.79%; Stability (% unmodified compound) ([3]; time 24 h): 90.02% and 90.02 ± 2.28 % |
